Tests used:
[1] = target: T1, Serine/threonine-protein kinase ICK (Homo sapiens) (UniProt Q9UPZ9); test: Inhibition of ICK (unknown origin) assessed as residual activity at 1000 nM by KINOMEscan analysis relative to control
T1 sequence (whole entry): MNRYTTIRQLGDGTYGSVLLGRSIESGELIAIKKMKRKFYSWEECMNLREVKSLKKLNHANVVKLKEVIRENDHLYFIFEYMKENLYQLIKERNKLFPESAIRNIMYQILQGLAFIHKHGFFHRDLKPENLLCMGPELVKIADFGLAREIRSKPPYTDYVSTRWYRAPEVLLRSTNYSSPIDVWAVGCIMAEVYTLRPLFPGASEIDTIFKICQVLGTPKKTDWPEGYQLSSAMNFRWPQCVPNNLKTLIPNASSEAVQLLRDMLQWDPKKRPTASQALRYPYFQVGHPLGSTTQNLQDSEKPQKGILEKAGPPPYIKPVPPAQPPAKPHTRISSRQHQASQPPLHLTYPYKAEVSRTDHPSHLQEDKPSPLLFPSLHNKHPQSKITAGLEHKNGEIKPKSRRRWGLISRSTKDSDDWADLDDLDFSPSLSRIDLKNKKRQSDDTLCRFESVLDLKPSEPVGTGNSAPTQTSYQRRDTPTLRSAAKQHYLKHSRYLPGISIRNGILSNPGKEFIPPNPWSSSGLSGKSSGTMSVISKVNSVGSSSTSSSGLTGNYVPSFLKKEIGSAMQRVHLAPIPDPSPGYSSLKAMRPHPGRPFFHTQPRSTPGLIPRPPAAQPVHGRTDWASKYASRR

[2] = tested on: Epidermal growth factor receptor (Homo sapiens), P00533 [L858R,T790M]; test: Inhibition of EGFR L858R/T790M mutant (unknown origin) assessed as residual activity at 1000 nM by KINOMEscan analysis relative to control
[3] = target: Cyclin-dependent kinase 13 (Homo sapiens) (UniProt Q14004); test: Inhibition of CDC2L5 (unknown origin) assessed as residual activity at 1000 nM by KINOMEscan analysis relative to control
[4] = target: Serine/threonine-protein kinase 35 (Homo sapiens) (UniProt Q8TDR2); test: Inhibition of STK35 (unknown origin) assessed as residual activity at 1000 nM by KINOMEscan analysis relative to control
[5] = target: T2, Inhibitor of nuclear factor kappa-B kinase subunit beta (Homo sapiens) (UniProt O14920); test: Inhibition of IKK-beta (unknown origin) assessed as residual activity at 1000 nM by KINOMEscan analysis relative to control
T2 sequence (whole entry): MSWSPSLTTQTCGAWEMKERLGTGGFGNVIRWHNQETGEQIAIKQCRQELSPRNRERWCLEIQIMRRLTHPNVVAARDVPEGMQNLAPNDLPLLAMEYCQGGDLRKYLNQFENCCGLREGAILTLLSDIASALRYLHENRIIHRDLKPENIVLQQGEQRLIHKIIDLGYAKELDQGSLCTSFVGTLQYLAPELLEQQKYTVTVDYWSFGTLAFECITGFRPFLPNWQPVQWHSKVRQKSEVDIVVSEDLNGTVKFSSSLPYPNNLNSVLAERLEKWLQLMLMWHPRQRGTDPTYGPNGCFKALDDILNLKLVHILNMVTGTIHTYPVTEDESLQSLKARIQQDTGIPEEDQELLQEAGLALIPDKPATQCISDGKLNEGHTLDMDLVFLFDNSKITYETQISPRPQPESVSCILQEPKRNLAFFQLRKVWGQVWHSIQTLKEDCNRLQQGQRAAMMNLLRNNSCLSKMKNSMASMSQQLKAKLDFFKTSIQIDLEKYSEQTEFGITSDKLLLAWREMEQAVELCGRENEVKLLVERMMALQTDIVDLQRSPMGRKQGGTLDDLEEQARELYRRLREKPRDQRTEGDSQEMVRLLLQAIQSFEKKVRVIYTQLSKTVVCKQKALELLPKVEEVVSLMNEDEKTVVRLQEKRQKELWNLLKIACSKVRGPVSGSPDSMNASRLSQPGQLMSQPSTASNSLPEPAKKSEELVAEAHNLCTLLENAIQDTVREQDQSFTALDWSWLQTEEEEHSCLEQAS

[6] = target: T3, Megakaryocyte-associated tyrosine-protein kinase (Homo sapiens) (UniProt P42679); test: Inhibition of CTK (unknown origin) assessed as residual activity at 1000 nM by KINOMEscan analysis relative to control
T3 sequence (whole entry): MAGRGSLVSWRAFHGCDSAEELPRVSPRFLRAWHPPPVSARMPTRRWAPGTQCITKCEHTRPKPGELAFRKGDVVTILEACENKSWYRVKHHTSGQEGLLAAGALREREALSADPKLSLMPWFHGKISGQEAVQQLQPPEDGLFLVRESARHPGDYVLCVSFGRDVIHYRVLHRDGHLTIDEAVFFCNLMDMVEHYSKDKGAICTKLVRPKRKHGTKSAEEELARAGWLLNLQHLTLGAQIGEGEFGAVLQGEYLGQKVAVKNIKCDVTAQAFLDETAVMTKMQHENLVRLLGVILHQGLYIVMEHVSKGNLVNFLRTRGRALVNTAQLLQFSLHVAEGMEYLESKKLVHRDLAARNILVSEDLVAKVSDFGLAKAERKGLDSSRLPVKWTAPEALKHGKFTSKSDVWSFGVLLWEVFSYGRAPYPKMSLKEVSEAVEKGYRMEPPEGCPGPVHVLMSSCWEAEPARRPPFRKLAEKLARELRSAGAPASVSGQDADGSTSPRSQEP

Chain of Cyclin-dependent kinase 13 (Homo sapiens) (Q14004 whole entry, looked up): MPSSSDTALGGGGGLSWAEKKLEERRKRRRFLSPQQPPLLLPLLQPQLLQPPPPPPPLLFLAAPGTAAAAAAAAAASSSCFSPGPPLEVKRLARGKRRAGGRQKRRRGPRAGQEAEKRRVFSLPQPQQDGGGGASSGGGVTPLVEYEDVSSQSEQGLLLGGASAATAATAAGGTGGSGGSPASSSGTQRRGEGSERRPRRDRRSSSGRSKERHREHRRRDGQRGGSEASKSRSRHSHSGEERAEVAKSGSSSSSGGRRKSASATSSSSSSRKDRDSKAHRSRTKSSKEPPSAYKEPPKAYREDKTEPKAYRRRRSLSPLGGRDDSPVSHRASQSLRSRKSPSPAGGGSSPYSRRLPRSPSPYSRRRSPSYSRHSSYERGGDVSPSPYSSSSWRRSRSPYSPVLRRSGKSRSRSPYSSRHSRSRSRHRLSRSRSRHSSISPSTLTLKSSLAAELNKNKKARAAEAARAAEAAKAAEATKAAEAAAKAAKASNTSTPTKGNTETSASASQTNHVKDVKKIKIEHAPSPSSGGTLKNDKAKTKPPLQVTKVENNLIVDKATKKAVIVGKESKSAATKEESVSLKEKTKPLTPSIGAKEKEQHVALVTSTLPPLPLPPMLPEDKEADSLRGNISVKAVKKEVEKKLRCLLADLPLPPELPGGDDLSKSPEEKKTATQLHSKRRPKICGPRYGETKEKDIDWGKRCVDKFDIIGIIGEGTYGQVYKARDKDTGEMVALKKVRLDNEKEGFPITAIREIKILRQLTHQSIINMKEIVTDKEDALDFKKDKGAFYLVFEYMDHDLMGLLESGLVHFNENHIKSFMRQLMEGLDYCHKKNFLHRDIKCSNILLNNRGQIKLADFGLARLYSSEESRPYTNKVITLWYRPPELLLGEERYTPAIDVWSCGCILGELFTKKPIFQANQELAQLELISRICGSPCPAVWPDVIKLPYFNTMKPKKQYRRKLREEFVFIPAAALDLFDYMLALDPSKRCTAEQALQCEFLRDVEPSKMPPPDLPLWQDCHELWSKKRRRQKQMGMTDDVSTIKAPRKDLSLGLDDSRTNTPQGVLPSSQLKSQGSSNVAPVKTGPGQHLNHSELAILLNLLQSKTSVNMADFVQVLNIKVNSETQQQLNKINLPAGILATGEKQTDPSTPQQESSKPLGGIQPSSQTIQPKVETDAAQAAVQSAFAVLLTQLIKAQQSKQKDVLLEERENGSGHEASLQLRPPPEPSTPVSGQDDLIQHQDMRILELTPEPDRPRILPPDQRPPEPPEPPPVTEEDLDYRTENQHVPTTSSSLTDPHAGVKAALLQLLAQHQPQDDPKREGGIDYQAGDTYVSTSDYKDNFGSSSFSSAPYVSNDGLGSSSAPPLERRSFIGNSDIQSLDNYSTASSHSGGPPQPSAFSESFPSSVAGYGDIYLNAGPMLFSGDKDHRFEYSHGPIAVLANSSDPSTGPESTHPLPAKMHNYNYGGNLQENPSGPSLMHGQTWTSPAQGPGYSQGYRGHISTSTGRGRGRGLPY
Chain of Serine/threonine-protein kinase 35 (Homo sapiens) (Q8TDR2 whole entry): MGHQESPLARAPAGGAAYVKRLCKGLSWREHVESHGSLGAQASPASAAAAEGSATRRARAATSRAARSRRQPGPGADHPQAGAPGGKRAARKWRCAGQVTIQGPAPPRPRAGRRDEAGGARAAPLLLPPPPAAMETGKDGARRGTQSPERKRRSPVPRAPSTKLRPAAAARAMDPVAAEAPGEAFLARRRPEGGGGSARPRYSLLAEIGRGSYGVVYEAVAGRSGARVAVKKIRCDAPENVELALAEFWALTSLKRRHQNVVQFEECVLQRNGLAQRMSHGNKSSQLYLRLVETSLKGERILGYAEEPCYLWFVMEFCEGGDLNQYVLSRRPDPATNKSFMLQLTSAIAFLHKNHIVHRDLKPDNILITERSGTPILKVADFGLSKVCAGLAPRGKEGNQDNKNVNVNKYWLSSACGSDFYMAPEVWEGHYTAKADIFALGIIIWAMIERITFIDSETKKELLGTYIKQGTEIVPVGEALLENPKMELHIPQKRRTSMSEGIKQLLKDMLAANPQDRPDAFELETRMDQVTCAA

SMILES: COc1cc2ncnc(N[C@H](C)c3cccc4ccccc34)c2cc1OC
- Activity [1]: 94%
- Activity [2]: 74%
- Activity [3]: 97%
- Activity [4]: 100%
- Activity [5]: 82%
- Activity [6]: 62%

SMILES: COc1cc2nc(C)nc(N[C@H](C)c3cccc(-c4cn[nH]c4)c3)c2cc1OC
- Activity [1]: 78%
- Activity [2]: 92%
- Activity [3]: 87%
- Activity [4]: 92%
- Activity [5]: 73%
- Activity [6]: 99%

From ChEMBL document CHEMBL5678818, “Discovery of potent SOS1 inhibitors that block RAS activation via disruption of the RAS-SOS1 interaction” (Proc Natl Acad Sci U S A, 2019)
